The text below walks through data of patent US20250290117A1, “MOLECULAR PHENOTYPIC ANTIMICROBIAL SUSCEPTIBILITY TESTING” (priority 2024, published 2025).

In one test the test system is E. coli. Put plainly: Molecular phenotypic antimicrobial susceptibility test, specimen with two detected pathogens incubated together without isolation. Type of test: cell-based, Escherichia coli. The conditions noted are these: E. coli in specimen with two detected pathogens (E. coli and M. morganii) incubated together; for Ct of Sensitive Breakpoint: Ct of controls (average) 15.93; for Molecular Antimicrobial Susceptibility Result: at sensitive breakpoint. The procedure, abridged: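 Susceptibility read molecularly: growth means resistance, prevented growth sensitivity, versus antibiotic-free control wells. Co-detected pathogens stay together without isolation; after 4-6 h preincubation and PCR identification (threshold >10,000 cells/mL), inoculum adjusted to 0.5 McFarland and placed on thawed plates with each drug at its breakpoint concentration(s).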

Test [1] deals with pathogens of clinical samples. Put plainly: Molecular phenotypic antimicrobial susceptibility test of clinical samples, extraction DNA purification step prior to PCR (Table 6). It is filed as cell-based. The procedure, abridged: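 For direct PCR, exposed cultures are lysed in buffer in the thermal cycler, whereas purified runs first isolate DNA with magnetic beads. Pathogen-specific or universal targets are amplified semi-quantitatively after 12-16 h of antimicrobial exposure in Mueller Hinton Broth.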

The mark [2] stands for this setting: E. coli, clinical sample of r10-r24.
The mark [3] stands for this setting: E. coli, clinical sample of r10-r24, Ct Control Avg 18.112.
[4] abbreviates: E. coli, clinical sample of r158-r172.
[5] abbreviates: E. coli, clinical sample of r158-r172, Ct Control Avg 20.146.
Setting [6] is: K. aerogenes, clinical sample of r136-r150.
[7] abbreviates: K. aerogenes, clinical sample of r136-r150, Ct Control Avg 19.994.
Where [8] appears, read: K. pneumoniae, clinical sample of r121-r135.
Where [9] appears, read: K. pneumoniae, clinical sample of r121-r135, Ct Control Avg 24.272.
[10] abbreviates: M. morganii, clinical sample of r55-r69.
The mark [11] stands for this setting: M. morganii, clinical sample of r70-r84.
Setting [12] is: M. morganii, clinical sample of r70-r84, Ct Control Avg 27.053.
Where [13] appears, read: P. mirabilis, clinical sample of r25-r39.
[14] abbreviates: P. mirabilis, clinical sample of r25-r39, Ct Control Avg 26.064.
[15] abbreviates: P. mirabilis, clinical sample of r40-r54.
The mark [16] stands for this setting: P. mirabilis, clinical sample of r40-r54, Ct Control Avg 26.987.
Where [17] appears, read: S. aureus, clinical sample of r85-r92.
The mark [18] stands for this setting: S. aureus, clinical sample of r85-r92, Ct Control Avg 24.32.

Turning to Gentamicin, in the test with E. coli, the “Ct of Sensitive Breakpoint” value worked out at 17.37. The “Molecular Antimicrobial Susceptibility Result” value in the test on E. coli is listed as “Resistant”. The “Molecular Antibiotic Susceptibility Result” value in test [1] (setting [2]), in test [1] (setting [4]), in test [1] (setting [6]), in test [1] (setting [8]), in test [1] (setting [10]) and in test [1] (setting [11]) was “Sensitive (Antimicrobial wells with pathogen load detected below the control wells (typically >2 cycle thresholds later) may be reported as Sensitive)” each time. In addition, the “Molecular Antibiotic Susceptibility Result” value in test [1] (setting [13]), in test [1] (setting [15]) and in test [1] (setting [17]) was “Sensitive (Antimicrobial wells with pathogen load detected below the control wells (typically >2 cycle thresholds later) may be reported as Sensitive)” in each case. Moreover, the Ct is 28.366 in test [1] (setting [3]); 32.759 in test [1] (setting [5]); 36.1 in test [1] (setting [7]); 44.195 in test [1] (setting [9]); “Undet” in test [1] (M. morganii, clinical sample of r55-r69, Ct Control Avg 28.86); “Undet” in test [1] (setting [12]). Besides, the Ct in test [1] (setting [14]) is given as 28.953; in test [1] (setting [16]), 37.234; in test [1] (setting [18]), “Undet”.

On to `CO/N=C(\C(=O)N[C@@H]1C(=O)N2C(C(=O)[O-])=C(C[N+]3(C)CCCC3)CS[C@H]12)c1csc(N)n1` [Cefepime], for which the “Ct of Sensitive Breakpoint” value in the test with E. coli was determined as 26.80. Also, the “Molecular Antimicrobial Susceptibility Result” value in the test with E. coli is “Sensitive (Antimicrobial wells with pathogen load detected below the control wells (typically >2 cycle thresholds later) may be reported as Sensitive)”. In addition, the “Molecular Antibiotic Susceptibility Result” value in test [1] (setting [2]), in test [1] (setting [4]), in test [1] (setting [6]), in test [1] (setting [8]), in test [1] (setting [10]) and in test [1] (setting [11]) was “Sensitive (Antimicrobial wells with pathogen load detected below the control wells (typically >2 cycle thresholds later) may be reported as Sensitive)” each time. The “Molecular Antibiotic Susceptibility Result” value in test [1] (setting [13]) and in test [1] (setting [15]) was “Sensitive (Antimicrobial wells with pathogen load detected below the control wells (typically >2 cycle thresholds later) may be reported as Sensitive)” in each case.

On to `C[C@H]1COc2c(N3CCN(C)CC3)c(F)cc3c(=O)c(C(=O)O)cn1c23` [Levofloxacin], for which the “Ct of Sensitive Breakpoint” value in the test on E. coli stood at 32.72. For the same compound, in the test on E. coli, the “Molecular Antimicrobial Susceptibility Result” value is listed as “Sensitive (Antimicrobial wells with pathogen load detected below the control wells (typically >2 cycle thresholds later) may be reported as Sensitive)”. Also, the “Molecular Antibiotic Susceptibility Result” value in test [1] (setting [2]) is on record as “Resistant”; in test [1] (setting [4]), “Sensitive (Antimicrobial wells with pathogen load detected below the control wells (typically >2 cycle thresholds later) may be reported as Sensitive)”; in test [1] (E. faecalis, clinical sample of r93-r99) it was “Sensitive (Antimicrobial wells with pathogen load detected below the control wells (typically >2 cycle thresholds later) may be reported as Sensitive)”; in test [1] (E. faecalis, clinical sample of r114-r120), “Sensitive (Antimicrobial wells with pathogen load detected below the control wells (typically >2 cycle thresholds later) may be reported as Sensitive)”; in test [1] (E. faecalis, clinical sample of r151-r157) it was “Sensitive (Antimicrobial wells with pathogen load detected below the control wells (typically >2 cycle thresholds later) may be reported as Sensitive)”; in test [1] (setting [6]), “Sensitive (Antimicrobial wells with pathogen load detected below the control wells (typically >2 cycle thresholds later) may be reported as Sensitive)”. Further, the “Molecular Antibiotic Susceptibility Result” value in test [1] (setting [8]) is “Sensitive (Antimicrobial wells with pathogen load detected below the control wells (typically >2 cycle thresholds later) may be reported as Sensitive)”; in test [1] (setting [10]) it was “Sensitive (Antimicrobial wells with pathogen load detected below the control wells (typically >2 cycle thresholds later) may be reported as Sensitive)”; in test [1] (setting [11]) it was “Sensitive (Antimicrobial wells with pathogen load detected below the control wells (typically >2 cycle thresholds later) may be reported as Sensitive)”; in test [1] (setting [13]), “Sensitive (Antimicrobial wells with pathogen load detected below the control wells (typically >2 cycle thresholds later) may be reported as Sensitive)”; in test [1] (setting [15]) it was “Sensitive (Antimicrobial wells with pathogen load detected below the control wells (typically >2 cycle thresholds later) may be reported as Sensitive)”; in test [1] (setting [17]), “Resistant”. The Ct in test [1] (setting [3]) was 17.903; in test [1] (setting [5]), 34.012; in test [1] (E. faecalis, clinical sample of r93-r99, Ct Control Avg 22.987) it was 37.857; in test [1] (E. faecalis, clinical sample of r100-r106, Ct Control Avg 23.073) it was 38.337; in test [1] (E. faecalis, clinical sample of r107-r113, Ct Control Avg 22.144), 29.347; in test [1] (E. faecalis, clinical sample of r114-r120, Ct Control Avg 20.822), 32.971. The Ct in test [1] (E. faecalis, clinical sample of r151-r157, Ct Control Avg 20.56) was found to be 37.926; in test [1] (setting [7]), 38.019; in test [1] (setting [9]) it was 34.466; in test [1] (setting [12]), 37.67; in test [1] (setting [14]), 33.029; in test [1] (setting [16]), 33.384. For the same compound, the Ct in test [1] (setting [18]) was 19.106.
